Literature values, collected in patent publication US20070021351A1, “Liver/plasma concentration ratio for dosing hepatitis C virus protease inhibitor” (Schering Corporation, priority 2005, published 2007).

Details: in vivo; cited from earlier work

Row | SMILES | volume of distribution
1 | C[C@H]1O[C@@H](O[C@H]2[C@@H](O)C[C@H](O[C@H]3[C@@H](O)C[C@H](O[C@H]4CC[C@@]5(C)[C@H](CC[C@@H]6[C@@H]5C[C@@H](O)[C@]5(C)[C@@H](C7=CC(=O)OC7)CC[C@]65O)C4)O[C@@H]3C)O[C@@H]2C)C[C@H](O)[C@@H]1O [digoxin, reference compound] | ~450 L
2 | CCO [ethanol, Ethanol] | about 35 L
